# In PMC6151383 (Molecules : A Journal of Synthetic Chemistry and Natural …, 2017):
# Like-named read-outs stand apart in the source and are kept apart here.
# Key:
# [1] = system: Staphylococcus aureus CCM 4516/08; assay: Antibacterial microdilution broth MIC, S. aureus; assay type: cell-based; conditions: Staphylococcus aureus
# [2] = system: Staphylococcus epidermidis H 6966/08; assay: Antibacterial microdilution broth MIC, S. epidermidis; assay type: cell-based; conditions: Staphylococcus epidermidis
# [3] = system: Enterococcus faecalis J 14365/08; assay: Antibacterial microdilution broth MIC, E. faecalis; assay type: cell-based; conditions: Enterococcus faecalis
# [4] = system: Escherichia coli CCM 4517; assay: Antibacterial microdilution broth MIC, E. coli; assay type: cell-based; conditions: Escherichia coli
# [5] = system: Pseudomonas aeruginosa CCM 1961; assay: Antibacterial microdilution broth MIC, P. aeruginosa; assay type: cell-based; conditions: Pseudomonas aeruginosa
# [6] = system: Mycobacterium tuberculosis 331/88 (H37Rv); assay: In vitro antimycobacterial MIC, M. tuberculosis; assay type: cell-based
# [7] = system: Mycobacterium avium 330/88; assay: In vitro antimycobacterial MIC, M. avium; assay type: cell-based
# [8] = system: Mycobacterium kansasii 235/80; assay: In vitro antimycobacterial MIC, M. kansasii 235/80; assay type: cell-based
# M. kansasii 6509/96 = assay: In vitro antimycobacterial MIC, M. kansasii clinical isolate; assay type: cell-based; conditions: Mycobacterium kansasii
# [9] = system: Candida albicans ATCC 44859; assay: Antifungal microdilution broth MIC, C. albicans; assay type: cell-based
# Candida tropicalis 156 = assay: Antifungal microdilution broth MIC, C. tropicalis; assay type: cell-based
# Candida krusei E28 = assay: Antifungal microdilution broth MIC, C. krusei; assay type: cell-based; conditions: Pichia kudriavzevii
# Candida glabrata 20/I = assay: Antifungal microdilution broth MIC, C. glabrata; assay type: cell-based; conditions: Nakaseomyces glabratus
# Trichosporon asahii 1188 = assay: Antifungal microdilution broth MIC, T. asahii; assay type: cell-based
# [10] = system: Aspergillus fumigatus 231; assay: Antifungal microdilution broth MIC, A. fumigatus; assay type: cell-based
# [11] = system: Lichtheimia corymbifera 272; assay: Antifungal microdilution broth MIC, L. corymbifera; assay type: cell-based
# [12] = system: Trichophyton interdigitale 445; assay: Antifungal microdilution broth MIC, T. interdigitale; assay type: cell-based
# Candida sp. = assay: Selectivity index for Candida sp. (IC50 HepG2/MIC); assay type: cell-based; conditions: all Candida species
# [13] = system: ESBL-positive Klebsiella pneumoniae J 14368/08
# [14] = system: Klebsiella pneumoniae D 11750/08; assay: Antibacterial microdilution broth MIC, K. pneumoniae; conditions: 48 h incubation
# [15] = system: yeasts (Candida sp., T. asahii); assay: Antifungal activity against yeasts; assay type: cell-based; conditions: read-out: MIC for yeasts
# [16] = system: Klebsiella pneumoniae D 11750/08
# [17] = 336 h, 14 d incubation, read-out: MIC Mtb. 331/88 14 d
# [18] = 504 h, 21 d incubation, read-out: MIC Mtb. 331/88 21 d
# [19] = 330/88, 336 h, 14 d incubation, read-out: MIC M. avium 330/88 14 d
# [20] = 330/88, 504 h, 21 d incubation, read-out: MIC M. avium 330/88 21 d
# [21] = 235/80, 168 h, 7 d incubation, read-out: MIC M. kansasii 235/80 7 d
# [22] = 235/80, 336 h, 14 d incubation, read-out: MIC M. kansasii 235/80 14 d
# [23] = 235/80, 504 h, 21 d incubation, read-out: MIC M. kansasii 235/80 21 d
# [24] = 6509/96, 168 h, 7 d incubation, read-out: MIC M. kansasii 6509/96 7 d
# [25] = 6509/96, 336 h, 14 d incubation, read-out: MIC M. kansasii 6509/96 14 d
# [26] = 6509/96, 504 h, 21 d incubation, read-out: MIC M. kansasii 6509/96 21 d
# [27] = Candida tropicalis, 156, 24 h, read-out: MIC CT 24 h
# [28] = Candida tropicalis, 156, 48 h, read-out: MIC CT 48 h
# [29] = E28, 24 h, read-out: MIC CK 24 h
# [30] = E28, 48 h, read-out: MIC CK 48 h
# [31] = Trichosporon asahii, 1188, 24 h, read-out: MIC TA 24 h
# [32] = Trichosporon asahii, 1188, 48 h, read-out: MIC TA 48 h
# [33] = Trichophyton interdigitale, 445, 72 h, read-out: MIC TI 72 h
# [34] = Trichophyton interdigitale, 445, 120 h, read-out: MIC TI 120 h
smiles,measurement,setting,value
"CC(C)(C)c1ccc(O)c(C=Nc2ccc(S(=O)(=O)Nc3ncccn3)cc2)c1 [Compound 2j, 4-{[5-(Tert-butyl)-2-hydroxybenzylidene]amino}-N-(pyrimidin-2-yl)benzenesulfonamide]",MIC,"[1]; CCM4516, 24 h, read-out: MIC SA 24 h",> 125 µM
same,MIC,"[1]; CCM4516, 48 h, read-out: MIC SA 48 h",> 125 µM
same,MIC,"[2]; H6966/08, 24 h, read-out: MIC SE 24 h",> 125 µM
same,MIC,"[2]; H6966/08, 48 h, read-out: MIC SE 48 h",> 125 µM
same,MIC,"[3]; J14365/08, 24 h, read-out: MIC EF 24 h",> 125 µM
same,MIC,"[3]; J14365/08, 48 h, read-out: MIC EF 48 h",> 125 µM
same,MIC,"[4]; CCM4517, 24 h, read-out: MIC EC 24 h",> 125 µM
same,MIC,"[4]; CCM4517, 48 h, read-out: MIC EC 48 h",> 125 µM
same,MIC,"[5]; CCM1961, 24 h, read-out: MIC PA 24 h",> 125 µM
same,MIC,"[5]; CCM1961, 48 h, read-out: MIC PA 48 h",> 125 µM
same,MIC,[6]; [17],32 µM
same,MIC,[6]; [18],62.5 µM
same,MIC,[7]; [19],125 µM
same,MIC,[7]; [20],125 µM
same,MIC,[8]; [21],16 µM
same,MIC,[8]; [22],32 µM
same,MIC,[8]; [23],62.5 µM
same,MIC,M. kansasii 6509/96; [24],16 µM
same,MIC,M. kansasii 6509/96; [25],16 µM
same,MIC,M. kansasii 6509/96; [26],32 µM
same,MIC,"[9]; ATCC44859, 24 h, read-out: MIC CA 24 h",> 125 µM
same,MIC,"[9]; ATCC44859, 48 h, read-out: MIC CA 48 h",> 125 µM
same,MIC,Candida tropicalis 156; [27],> 125 µM
same,MIC,Candida tropicalis 156; [28],> 125 µM
same,MIC,Candida krusei E28; [29],> 125 µM
same,MIC,Candida krusei E28; [30],> 125 µM
same,MIC,"Candida glabrata 20/I; 24 h, read-out: MIC CG 24 h",> 125 µM
same,MIC,"Candida glabrata 20/I; 48 h, read-out: MIC CG 48 h",> 125 µM
same,MIC,Trichosporon asahii 1188; [31],> 125 µM
same,MIC,Trichosporon asahii 1188; [32],> 125 µM
same,MIC,"[10]; Aspergillus fumigatus, 231, 24 h, read-out: MIC AF 24 h",> 125 µM
same,MIC,"[10]; Aspergillus fumigatus, 231, 48 h, read-out: MIC AF 48 h",> 125 µM
same,MIC,"[11]; Lichtheimia corymbifera, 272, 24 h, read-out: MIC LC 24 h",> 125 µM
same,MIC,"[11]; Lichtheimia corymbifera, 272, 48 h, read-out: MIC LC 48 h",> 125 µM
same,MIC,[12]; [33],62.5 µM
same,MIC,[12]; [34],62.5 µM
same,MIC,"[12]; Trichophyton interdigitale, 445, read-out: MIC for T. interdigitale",62.5 µM
same,SI for Candida sp.,Candida sp.,inactive
same,MIC KP-E 48 h,[13]; 48 h incubation,>125 µM
same,MIC KP 48 h,[14],>125 µM
"O=S(=O)(Nc1ncccn1)c1ccc(N=Cc2cc(Cl)cc(Br)c2O)cc1 [Compound 2n, 4-[(3-Bromo-5-chloro-2-hydroxybenzylidene)amino]-N-(pyrimidin-2-yl)benzenesulfonamide]",MIC,"[1]; CCM4516, 48 h incubation, read-out: MIC SA 48 h",31.2 µM
same,MIC,"[2]; H6966/08, 48 h incubation, read-out: MIC SE 48 h",31.2 µM
same,MIC,"[3]; J14365/08, 48 h incubation, read-out: MIC EF 48 h",> 500 µM
same,MIC,"[4]; CCM4517, 48 h incubation, read-out: MIC EC 48 h",500 µM
same,MIC,"[5]; CCM1961, 48 h incubation, read-out: MIC PA 48 h",> 500 µM
same,MIC,[6]; [17],125 µM
same,MIC,[6]; [18],125 µM
same,MIC,[7]; [19],250 µM
same,MIC,[7]; [20],500 µM
same,MIC,[8]; [21],125 µM
same,MIC,[8]; [22],125 µM
same,MIC,[8]; [23],250 µM
same,MIC,M. kansasii 6509/96; [24],62.5 µM
same,MIC,M. kansasii 6509/96; [25],125 µM
same,MIC,M. kansasii 6509/96; [26],125 µM
same,MIC,"[9]; ATCC44859, 48 h incubation, read-out: MIC CA 48 h",31.2 µM
same,MIC,Candida tropicalis 156; [27],62.5 µM
same,MIC,Candida tropicalis 156; [28],62.5 µM
same,MIC,Candida krusei E28; [29],62.5 µM
same,MIC,Candida krusei E28; [30],62.5 µM
same,MIC,"Candida glabrata 20/I; 48 h incubation, read-out: MIC CG 48 h",31.2 µM
same,MIC,Trichosporon asahii 1188; [31],62.5 µM
same,MIC,Trichosporon asahii 1188; [32],62.5 µM
same,MIC,"[10]; Aspergillus fumigatus, 231, 48 h incubation, read-out: MIC AF 48 h",250 µM
same,MIC,"[11]; Lichtheimia corymbifera, 272, 48 h incubation, read-out: MIC LC 48 h",500 µM
same,MIC,[12]; [33],62.5 µM
same,MIC,[12]; [34],62.5 µM
same,MIC,[15],31.2 to 125 µM
same,MIC KP 24 h,[16]; 24 h,>500 µM
same,MIC KP 48 h,[16]; 48 h,>500 µM
same,MIC KP-E 24 h,[13]; 24 h,500 µM
same,MIC KP-E 48 h,[13]; 48 h,500 µM
